According to patent US20070172957A1, “Methods of identifying anti-inflammatory macrolides” (TAISHO PHARMACEUTICAL CO., LTD., priority 2004, published 2007):

System: genes predictive for the anti-inflammatory macrolide effect
Assay: Genes statistically predictive of Clari response: differentially expressed with Clari but not the inactive macrolides MAA or Josa (Appendix E)
Assay type: cell-based
From the text: In the case of the above-mentioned (i) related to arachidonic acid biosynthesis, specifically, methods of the embodiment involve assaying whether a test macrolide alters biosynthesis of arachidonic acid, alters the expression or activities of enzymes involved in the biosynthesis or activation of arachidonic acid (e.g., arachidonic acid CoA synthetase, delta-6 desaturase, fatty acid elongase, and delta-5 desaturase, AA-related genes in Tables 2 and 3), or alters the expression of genes identified as predictive for the anti-inflammatory macrolide effect (Appendix E). Assays in which arachidonic acid or gene expression or enzymatic activity is detected can be carried out after contacting a cell with a test macrolide. Any cell line that secretes prostaglandin or produces arachidonic acid can be used. Epithelial and macrophages lines (e.g., A549 or THP-1) are suitable for this purpose; other cell lines can be identified by carrying out assays such as those described in the specific Examples, below. Alternatively, screening assays can be carried out after adding a test macrolide to an in vitro cell system (e.g., a cellular extract or liver microsome preparation) or an in vitro enzyme assay system.

CO[C@@H]1[C@@H](O[C@@H]2O[C@H](C)[C@@H](O[C@H]3C[C@@](C)(O)[C@@H](OC(=O)CC(C)C)[C@H](C)O3)[C@H](N(C)C)[C@H]2O)[C@@H](CC=O)C[C@@H](C)[C@@H](O)/C=C/C=C/C[C@@H](C)OC(=O)C[C@H]1OC(C)=O [josamycin]
group mean, gene UNG (SpotID 48807, MAA and Josa vs. Clari): 1.03 | group mean, gene TUBB (SpotID 48914, MAA and Josa vs. Clari): 0.96 | group mean, gene ITGAE (SpotID 48921, MAA and Josa vs. Clari): 0.85 | mean group, ITGAE (SpotID 48921, pooled group mean): 0.85 | group mean, gene P4HA2 (SpotID 48971, MAA and Josa vs. Clari): 1.07 | group mean, gene FADS1 (SpotID 48998, MAA and Josa vs. Clari): 1.02 | group mean, gene PRSS25 (SpotID 49006, MAA and Josa vs. Clari): 1.02 | mean group, PRSS25 (SpotID 49006, pooled group mean): 1.02 | group mean, gene TM9SF2 (SpotID 49007, MAA and Josa vs. Clari): 1.08 | mean group, TM9SF2 (SpotID 49007, pooled group mean): 1.08 | group mean, gene BBC3 (SpotID 49013, MAA and Josa vs. Clari): 0.93 | group mean, gene BNIP3L (SpotID 49028, MAA and Josa vs. Clari): 1.03 | mean group, BNIP3L (SpotID 49028, pooled group mean): 1.03 | group mean, gene GSK3B (SpotID 49032, MAA and Josa vs. Clari): 1.06 | group mean, gene GLUD1 (SpotID 49047, MAA and Josa vs. Clari): 1.05 | group mean, gene SERPINB1 (SpotID 49117, MAA and Josa vs. Clari): 1.01 | mean group, SERPINB1 (SpotID 49117, pooled group mean): 1.01 | group mean, gene PPIB (SpotID 49142, MAA and Josa vs. Clari): 1.03 | group mean, gene PIK3R3 (SpotID 49144, MAA and Josa vs. Clari): 1.01 | group mean, gene ARTS-1 (SpotID 49155, MAA and Josa vs. Clari): 1.11 | mean group, ARTS-1 (SpotID 49155, pooled group mean): 1.11 | group mean, gene LGALS3 (SpotID 49163, MAA and Josa vs. Clari): 1.06 | group mean, gene RRS1 (SpotID 49169, MAA and Josa vs. Clari): 1.09 | mean group, RRS1 (SpotID 49169, pooled group mean): 1.09 | group mean, gene YAF2 (SpotID 49172, MAA and Josa vs. Clari): 1.01 | group mean, gene NEDD8 (SpotID 49177, MAA and Josa vs. Clari): 0.97 | group mean, gene SRRM1 (SpotID 49183, MAA and Josa vs. Clari): 0.96 | group mean, gene FUCA1 (SpotID 49197, MAA and Josa vs. Clari): 0.98 | group mean, gene APOE (SpotID 49233, MAA and Josa vs. Clari): 0.96 | mean group, APOE (SpotID 49233, pooled group mean): 0.96 | mean group, TNFRSF10B (SpotID 49272, pooled group mean): 0.97 | group mean, gene PPIB (SpotID 49314, MAA and Josa vs. Clari): 1.04 | mean group, PPIB (SpotID 49314, pooled group mean): 1.04 | group mean, gene YWHAH (SpotID 49318, MAA and Josa vs. Clari): 1.08 | mean group, YWHAH (SpotID 49318, pooled group mean): 1.08 | group mean, gene HNRPA3 (SpotID 49347, MAA and Josa vs. Clari): 1.01 | group mean, gene NCBP2 (SpotID 49352, MAA and Josa vs. Clari): 0.94 | group mean, gene TEB4 (SpotID 49360, MAA and Josa vs. Clari): 1.10 | mean group, TEB4 (SpotID 49360, pooled group mean): 1.10 | group mean, gene ABCE1 (SpotID 49364, MAA and Josa vs. Clari): 1.06 | group mean, gene EIF3S9 (SpotID 49373, MAA and Josa vs. Clari): 1.06 | mean group, SpotID 49374 (SpotID 49374 (gene symbol not given), pooled group mean): 0.97 | group mean, SpotID 49374 (gene symbol not given) (SpotID 49374, MAA and Josa vs. Clari): 0.97 | group mean, gene SLC35A2 (SpotID 49380, MAA and Josa vs. Clari): 0.99 | group mean, gene PPP3CB (SpotID 49391, MAA and Josa vs. Clari): 1.02 | group mean, gene TRRAP (SpotID 49435, MAA and Josa vs. Clari): 1.07 | mean group, TRRAP (SpotID 49435, pooled group mean): 1.07 | group mean, gene SRC (SpotID 49446, MAA and Josa vs. Clari): 1.00 | mean group, SRC (SpotID 49446, pooled group mean): 1.00 | group mean, gene LOC55871 (SpotID 49481, MAA and Josa vs. Clari): 0.90 | group mean, gene VTN (SpotID 49490, MAA and Josa vs. Clari): 1.12 | mean group, VTN (SpotID 49490, pooled group mean): 1.12 | group mean, gene MATN2 (SpotID 49511, MAA and Josa vs. Clari): 0.93 | group mean, gene GC20 (SpotID 49512, MAA and Josa vs. Clari): 1.01 | group mean, gene UBC (SpotID 49514, MAA and Josa vs. Clari): 0.97 | mean group, UBC (SpotID 49514, pooled group mean): 0.97 | group mean, gene AP1G2 (SpotID 49524, MAA and Josa vs. Clari): 0.74 | mean group, AP1G2 (SpotID 49524, pooled group mean): 0.74 | group mean, gene GNPI (SpotID 49546, MAA and Josa vs. Clari): 1.05 | mean group, LOC54543 (SpotID 49577, pooled group mean): 0.88 | group mean, gene PSMC4 (SpotID 49580, MAA and Josa vs. Clari): 1.12 | mean group, CSTF3 (SpotID 49606, pooled group mean): 0.98 | group mean, gene POU4F1 (SpotID 49608, MAA and Josa vs. Clari): 0.97 | group mean, gene CLN2 (SpotID 49618, MAA and Josa vs. Clari): 1.03 | mean group, CLN2 (SpotID 49618, pooled group mean): 1.03 | group mean, gene FGF2 (SpotID 49649, MAA and Josa vs. Clari): 1.12 | group mean, gene MAP3K10 (SpotID 49650, MAA and Josa vs. Clari): 0.93 | mean group, BTN3A2 (SpotID 49673, pooled group mean): 0.92 | mean group, SERPINF1 (SpotID 49679, pooled group mean): 0.98 | group mean, gene GSK3B (SpotID 49688, MAA and Josa vs. Clari): 1.05 | group mean, gene CAT (SpotID 49698, MAA and Josa vs. Clari): 0.92 | group mean, gene PCYT2 (SpotID 49705, MAA and Josa vs. Clari): 0.92 | group mean, gene HNRPD (SpotID 49715, MAA and Josa vs. Clari): 0.99 | group mean, gene GSK3B (SpotID 49735, MAA and Josa vs. Clari): 1.02 | group mean, gene CHAF1B (SpotID 49737, MAA and Josa vs. Clari): 0.99 | mean group, CHAF1B (SpotID 49737, pooled group mean): 0.99 | group mean, gene USF2 (SpotID 49744, MAA and Josa vs. Clari): 0.93 | group mean, gene RPLP0 (SpotID 49747, MAA and Josa vs. Clari): 0.91
